Test results published in patent US7429612B2, “Indoline compound and medicinal use thereof” (Kyoto Pharmaceutical Industries, Ltd., priority 2002, dated 2008).

Legend:
[1] = Plasma concentration after oral administration; assay type: in vivo, SD male rats; settings: 10 mg/kg oral, suspended in 5% gum arabic, HPLC
Protocol: A test compound (10 mg/kg) suspended in 5% gum arabic solution was forcibly administered orally to SD male rats weighing 200-250 g. At 0.5, 1, 3, 5 and 8 hours after administration, blood was taken without anesthesia and heparinized plasma was separated by conventional method. The concentration of the test compound in the plasma was determined by high performance liquid chromatography, the results of which are shown in Table 5.

hepatic ACAT = assay: Hepatic ACAT inhibitory activity (rabbit liver microsomes, [1-14C]-oleoyl CoA); assay type: biochemical, Japanese white rabbits; settings: Concentration: 10^-6 M; inhibition of cholesteryl oleate production vs control
Protocol: A high cholesterol feed [a feed added with cholesterol (1%), Clea Japan, Inc.] was fed to male Japanese white rabbits weighing 2-2.5 kg at 100 g per day and the rabbits were bred for 4 weeks. The rabbits were killed by bleeding under anesthesia and liver was removed. The liver was homogenated, and the homogenate was centrifuged at 4° C. and 10,000 rpm for 15 min. The obtained supernatant was further centrifuged at 4° C. and 41,000 rpm for 60 minutes to give microsomal fractions. The microsomal suspension as an enzyme sample, dimethyl sulfoxide (DMSO, […]) or a test compound dissolved in DMSO (test compound solution 3 μl), and reaction substrate [1-^14C]-oleoyl CoA were added to 0.15 M phosphate buffer to the total amount of 300 μl. After incubation at 37° C. for 20 minutes, a chloroform-methanol mixture was added to stop the reaction. Water was added thereto and mixed, and the chloroform layer was separated. The solvent was evaporated to dryness, and the residue was redissolved in n-hexane. The mixture was subjected to thin layer chromatography using a silica gel plate. The spots of cholesteryl oleate on the silica gel plate were scraped, and quantitatively assayed on lo a liquid scintillation counter.

[2] = test system: cholesterol secretion from the liver; assay: Mouse hepatic lipid secretion inhibitory effect (Triton WR-1339 method); assay type: in vivo, Slc:ICR mice; settings: 10 mg/kg/day oral, plasma TC change in 3 hr after Triton WR-1339, read-out: Cholesterol secretion inhibitory rate (%)
Protocol: About 5 week-old male Slc:ICR mice (Japan SLC) were fed only in the daytime (9:00-18:00) and preliminarily bred for one week. During this period, free access to tap water was allowed during the nighttime, too. The mice were divided into a control group and a test compound group at 6 mice per group, such that the average and standard deviation of the body weight became almost the same. The blood (ca 80 μL) was drawn from the orbital venous plexus using a glass capillary under anesthesia, and at 30 min after blood drawing, a test compound suspended in 5% gum arabic solution in advance was orally administered at a dose of 10 mg/kg. At 30 min after the administration, Triton WR-1339 60 mg/mL solution prepared with physiological saline in advance was administered to the tail vein at a dose of 5 mL/kg. At 3 hr after the Triton WR-1339 administration, the blood was drawn again from the orbital venous plexus. Plasma was separated from the drawn blood, and plasma TC was measured using a commercially available measurement kit (Wako Pure Chemical Industries, Ltd.). Changes in blood-concentration in 3 hr after Triton WR-1339 administration were calculated and taken as the rate of cholesterol secretion from the liver. The rate of secretion was compared between the control group and the test compound group and the secretion inhibitory rate of the test compound was calculated.

[3] = test system: THP-1 cell-derived macrophages; assay: THP-1 cell-derived macrophage foam cell formation suppressing effect (cholesterol ester accumulation inhibitory effect); assay type: cell-based; settings: Homo sapiens, THP-1, 72 h, Concentration: 10^-6 M, acetyl LDL, 3 days culture, read-out: foam cell formation inhibitory rate (%)
Protocol: THP-1 (Dainippon Pharmaceutical Co., Ltd.) cells were passage cultured in RPMI-1640 medium supplemented with 10% fetal bovine serum (FBS), and the cells of passages 6-13 after purchase were used. The cells were suspended in FBS-containing RPMI-1640 medium to give a suspension having a concentration of 4×10^5 cells/mL. The cell suspension was inoculated to a 12 well microplate by 1 mL, and treated with phorbol 12-myristate 13-acetate (PMA, 200 nM) as a differentiation inducing agent into macrophage. Then acetyl LDL 400 μg/mL prepared separately from plasma-derived LDL of genetically hyperlipidemia rabbit (KHC rabbit, Japan Laboratory Animals, Inc.) was added. In addition, a test compound dissolved in DMSO and diluted with FBS-containing RPMI-1640 medium or a control solvent was added. After culture in a carbon dioxide incubator for 3 days, the cells were washed with phosphate buffered physiological saline (pH 7.0), and the lipid was extracted with n-hexane/isopropanol (3:2). The cells were dissolved in 1M-NaOH and the protein amount was measured. The free cholesterol and cholesterol ester in a lipid extraction sample was measured by the method of Kunitomo et al. (1983). The cholesterol ester was compared between the control cell and the test compound-treated cells, and the cholesterol ester accumulation inhibitory rate of the test compound was calculated.

LDL = assay: In vitro LDL peroxidation inhibitory effect (copper sulfate, thiobarbituric acid method); assay type: biochemical, KHC rabbits; settings: Concentration: 10^-5 M; malondialdehyde production, 5 μM copper sulfate, 37° C., 1 hr
Protocol: The blood was drawn from the auricular artery of KHC rabbits weighing about 3 kg and LDL was separated by a conventional method. A solution (5 μL) of test compound in DMSO or DMSO was added (final concentration 10^−5 M) to LDL suspension (0.5 mg protein/mL, 0.5 mL), aqueous copper sulfate solution (5 μL, final concentration 5 μM) was added, and the mixture was incubated at 37° C. for 1 hr. After the completion of the incubation, EDTA·2Na solution (5 μL, final concentration 1 mM) was added, and lipoperoxide concentration in the-sample was measured by the Yagi's method. To be specific, lipoperoxide in the sample was color developed by the thiobarbituric acid method, measured as malondialdehyde and the activity of the test compound was shown by malondialdehyde production inhibitory rate (%) [to what level the production of malondialdehyde was inhibited as compared to control].

| SMILES | Maximum concentration in blood [1] [µg/mL] | Hepatic ACAT inhibitory ratio (%) (hepatic ACAT) | inhibition at 1 µM [3] [%] | further results |
| --- | --- | --- | --- | --- |
| CCCCCN1CCc2c(C)c(NS(C)(=O)=O)c(C)c(NC(=O)C(C)(C)C)c21 [Example 11, N-(5-methanesulfonylamino-4,6-dimethyl-1-pentylindolin-7-yl)-2,2-dimethylpropanamide] | 1.98 |  |  |  |
| CCCCN1CCc2c(C)c(NS(C)(=O)=O)c(C)c(NC(=O)C(C)(C)C)c21 [Example 12, N-(1-butyl-5-methanesulfonylamino-4,6-dimethylindolin-7-yl)-2,2-dimethylpropanamide] | 3.05 |  |  |  |
| Cc1c2c(c(NC(=O)C(C)(C)C)c(C)c1NS(C)(=O)=O)N(CCC(C)C)CC2 [Example 13, N-[5-methanesulfonylamino-4,6-dimethyl-1-(3-methylbutyl)indolin-7-yl]-2,2-dimethylpropanamide] | 1.36 |  |  |  |
| CCCN1CCc2c(C)c(NS(C)(=O)=O)c(C)c(NC(=O)C(C)(C)C)c21 [Example 14, N-(5-methanesulfonylamino-4,6-dimethyl-1-propylindolin-7-yl)-2,2-dimethylpropanamide] | 2.30 |  |  |  |
| Cc1c2c(c(NC(=O)C(C)(C)C)c(C)c1NS(C)(=O)=O)N(CC(C)C)CC2 [Example 15, N-[5-methanesulfonylamino-4,6-dimethyl-1-(2-methylpropyl)indolin-7-yl]-2,2-dimethylpropanamide] | 1.68 |  |  |  |
| CCN1CCc2c(C)c(NS(C)(=O)=O)c(C)c(NC(=O)C(C)(C)C)c21 [Example 16, N-(1-ethyl-5-methanesulfonylamino-4,6-dimethylindolin-7-yl)-2,2-dimethylpropanamide] | 2.90 |  |  |  |
| CCCN1CCc2c(C)c(NS(N)(=O)=O)c(C)c(NC(=O)C(C)(C)C)c21.Cl [Example 17, N-(4,6-dimethyl-1-propyl-5-sulfamoylaminoindolin-7-yl)-2,2-dimethylpropanamide hydrochloride] |  | 86.4 |  | inhibition in vivo at 10 mg/kg [2]: 44.4% |
| CCCCCN1CCc2c(C)c(NS(N)(=O)=O)c(C)c(NC(=O)C(C)(C)C)c21.Cl [Example 18, N-(4,6-dimethyl-1-pentyl-5-sulfamoylaminoindolin-7-yl)-2,2-dimethylpropanamide hydrochloride] |  | 96.7 | 93 | inhibition in vivo at 10 mg/kg [2]: 41.4% |
| CCCCCCN1CCc2c(C)c(NS(C)(=O)=O)c(C)c(NC(=O)C(C)(C)C)c21 [Example 22, N-(1-hexyl-5-methanesulfonylamino-4,6-dimethylindolin-7-yl)-2,2-dimethylpropanamide] | 1.12 |  |  |  |
| Cc1c2c(c(NC(=O)C(C)(C)C)c(C)c1NS(C)(=O)=O)N(C1CCCC1)CC2 [Example 41, N-(1-cyclopentyl-5-methanesulfonylamino-4,6-dimethylindolin-7-yl)-2,2-dimethylpropanamide] | 2.03 | 97.3 | 76.5 | inhibition in vivo at 10 mg/kg [2]: 58.5% |
| CCCN1c2c(c(C)c(NS(N)(=O)=O)c(C)c2NC(=O)C(C)(C)C)CC1C.Cl (centres unmarked) [Example 53, N-(2,4,6-trimethyl-1-propyl-5-sulfamoylaminoindolin-7-yl)-2,2-dimethylpropanamide hydrochloride] | 1.31 |  | 70 |  |
| CCCN1c2c(c(C)c(NS(N)(=O)=O)c(C)c2NC(=O)C(C)(C)C)CC1CSC.Cl (centres unmarked) [Example 57, N-(4,6-dimethyl-2-methylthiomethyl-1-propyl-5-sulfamoylaminoindolin-7-yl)-2,2-dimethylpropanamide hydrochloride] |  | 94.2 | 79.9 |  |
| CCCN1c2c(c(C)c(NS(N)(=O)=O)c(C)c2NC(=O)C(C)(C)C)CC1CSCC.Cl (centres unmarked) [Example 59, N-(2-ethylthiomethyl-4,6-dimethyl-1-propyl-5-sulfamoylaminoindolin-7-yl)-2,2-dimethylpropanamide hydrochloride] |  | 98.1 | 92.1 |  |
| CC(C)(Sc1cc(C(C)(C)C)c(O)c(C(C)(C)C)c1)Sc1cc(C(C)(C)C)c(O)c(C(C)(C)C)c1 [Probucol] |  |  |  | LDL peroxidation inhibitory ratio (%) (LDL): 33.8% |
